Structures are written as SMILES.

The target of the assay is T1, Human thrombin (Homo sapiens, UniProt P00734).
T1 construct: purchased Centraal Laboratorium voor Bloedtransfusie, Amsterdam, The Netherlands
As to the kind of experiment: Anti-thrombin assay: rate of hydrolysis of chromogenic substrate S-2238 by thrombin. In kind it is biochemical. The following applies: TNP buffer pH 7.4, 37° C., substrate S-2238, absorbance at 405 nm; concentration causing 50% inhibition of the maximum absorbance of the blank. The procedure:
Thrombin (Factor IIa) is a factor in the coagulation cascade.
The anti-thrombin activity of compounds of the present invention was assessed by measuring spectrophotometrically the rate of hydrolysis of the chromogenic substrate s-2238 exterted by thrombin. This assay for anti-thrombin activity in a buffer system was used to assess the IC50-value of a test compound.
Test medium: Tromethamine-NaCl-polyethylene glycol 6000 (TNP) buffer. Reference compound: I2581 (Kabi) Vehicle:TNP buffer. Solubilisation can be assisted with dimethylsulphoxide, methanol, ethanol, acetonitrile or tert.-butyl alcohol which are without adverse effects in concentrations up to 2.5% in the final reaction mixture.
Technique Reagents*: 1. Tromethamine-NaCl (TN) buffer. Composition of the buffer: Tromethamine(Tris) 6.057 g (50 mmol), NaCl 5.844 g (100 mmol), water to 1 l. The pH of the solution is adjusted to 7.4 at 37° C. with HCl (10 mmol·l^−1). 2. TNP buffer: Polyethylene glycol 6000 is dissolved in TN buffer to give a concentration of 3 g·l^−1. 3. S-2238 solution: One vial S-2238 (25 mg; Kabi Diagnostica, Sweden) is dissolved in 20 ml TN buffer to give a concentration of 1.25 mg·ml^−1 (2 mmol·l^−1). 4. Thrombin solution: Human thrombin (16 000 nKat·vial^−1; Centraal Laboratorium voor Bloedtransfusie, Amsterdam, The Netherlands) is dissolved in TNP buffer to give a stock solution of 835 nKat·ml^−1. Immediately before use this solution is diluted with TNP buffer to give a concentration of 3.34 nKat·ml^−1.
* All ingredients used are of analytical grade
For aqueous solutions ultrapure water (Milli-Q quality) is used.
Preparation of Test and Reference Compound Solutions
The test and reference compounds are dissolved in Milli-Q water to give stock concentrations of 10^−2 mol·l^−1. Each concentration is stepwise diluted with the vehicle to give concentrations of 10^−3, 10^−4 and 10^−5 mol·l^−1. […]
At room temperature 0.075 ml and 0.025 ml test compound or reference compound solutions or vehicle are alternately pipetted into the wells of a microtiter plate and these solutions are diluted with 0.115 ml and 0.0165 ml TNP buffer, respectively. […] Starting after 1 min of incubation, the absorbance of each sample at 405 nm is measured every 2 min. for a period of 90 min. using a kinetic microtiter plate reader (Twinreader plus, Flow Laboratories).
All data are collected in an IBM personal computer using LOTUS-MEASURE. For each compound concentration (expressed in mol·l^−1 reaction mixture) and for the blank the absorbance is plotted versus the reaction time in min.
Evaluation of responses: For each final concentration the maximum absorbance was calculated from the assay plot. […]
As to `NCCCCC(NC(=O)CN(C(=O)C(N)Cc1ccccc1)C1CCCC1)C(=O)c1nccs1` [2(e), H—D-Phe-(N-cyclopentyl)-Gly-Lys-(2-thiazolyl)], the IC50 (as a rule, the concentration that inhibits the measured activity by half) is 4.5 µM.

On to `NCCCCC(NC(=O)CN(C(=O)CCc1ccccc1)C1CCCC1)C(=O)C(=O)O` (stereo not shown) [4(b), 3-Phenylpropionyl-(N-cyclopentyl)-Gly-LysΨ[COCO]—OH], for which the IC50 was 4.34 µM. The IC50 values of the last two compounds are within 1.5-fold of each other.

In the case of `NCCCC[C@H](NC(=O)[C@@H]1CCCN1C(=O)[C@@H](Cc1ccc(F)cc1)NCC(=O)O)C(=O)c1nccs1` [Example 39, HOOC—CH2—D-p-F-Phe-Pro-Lys-(2-thiazolyl)], inhibition was half-maximal at 19 µM (IC50).

For the compound `NCCCCC(NC(=O)CN1CCCCC(NS(=O)(=O)Cc2ccccc2)C1=O)C(=O)C(=O)O` (stereo not shown) [Example 41, BzlSO2-norLeu(cyclo)Gly-LysΨ[COCO]—OH], the IC50 turned out to be 0.135 µM.
